What was measured:
[1] = tested on: DOCA-salt hypertensive rats; assay: Ganglionic-mediated ICP/MAP in DOCA-salt hypertensive rats; format: in vivo, rat; settings: 50 nmol/kg into left corpus cavernosum, 1-5 V
Text: (§1) In these experiments, male Sprague-Dawley rats (200-250 g; Harlan) were made DOCA-salt hypertensive by uninephrectomy and implantation of a deoxycorticosterone-acetate (DOCA) silastic pellet at the back of the neck. DOCA rats received saltwater (1% NaCl, 0.2% KCl) for 4 weeks. Sham control rats were uninephrectomized and drank tap water. Male stroke prone-spontaneously hypertensive rats (12 weeks old, 350 g) were obtained from the breeding colony at the Medical College of Georgia, Augusta, Ga. Systolic blood pressures were taken by tail cuff measurement (DOCA/sham: after 4 weeks treatment; SHRSP: at 12 weeks of age). Measurement of ICP/MAP was as described above. […] Subsequently, the ICP/MAP response to ganglionic stimulation was assessed over a range of voltages.

[2] = tested on: isolated rat cavernosal tissue; assay: Isolated rat cavernosal strips, relaxation of agonist-induced contraction; format: cell-based; settings: for effect on relaxation response of cavernosal strips to 1 μM Y-27632: 10 μM incubation
Protocol: Cavernosal strips (3-4 mm long) were prepared by removal of the corpus spongiosum and dorsal vein, and the proximal portion of the corpus cavernosum divided across the midline of the intact penis. Right and left longitudinal strips were mounted in an isolated muscle bath for measurement of contractile force generation. Strips were bathed in physiologic salt solution (130 mM NaCl, 4.7 mM KCl, 1.18 mM KHPO4, 1.17 mM […], 1.6 mM CaCl2-2H2O, 14.9 mM NaHCO3, 5.5 mM dextrose, and 0.03 mM CaNa2 EDTA), at 37° C., and gassed with 95% O2/5% CO2.

[3] = tested on: animal model of hypertension; settings: cited from earlier work
castrated rats = assay: Erectile response to graded ganglionic stimulation in castrated rats; format: in vivo, rat; settings: intracavernosal injection, 1-5 V
Text: Rats which have been rendered severely hypogonadal by surgical castration show a diminished erectile response.

[4] = male, rat, in vivo
Protocol: (§2) Using an in vivo rat model, the effect of Rho-kinase inhibition on corpus cavernosum (CCP) and mean arterial pressure (MAP) was examined. The left carotid artery and right corpus cavernosum of the rat penis were cannulated for continuous monitoring of MAP and CCP respectively as described by Mills, T., et al., (Biol. Reprod. 59, 1413-1418, 1998; J. Appl. Physiol., 91: 1269-1273, 2001). Rats were anesthetized with intramuscular ketamine (87 mg/kg body wt) plus xylazine (13 mg/kg) and maintained on supplemental ketamine as needed. Vasoactive drugs were administered through a cannula in the left corpus cavernosum. For experiments measuring voltage-stimulated changes in CCP and MAP, stainless steel bipolar electrodes were positioned on the right major pelvic ganglion. […] All pressure data were collected for analysis using Polyview data-acquisition software.

cultured cells = settings: cited from earlier work
rat aorta = assay: Rat aortic rings, endothelium intact or denuded, PE-induced contraction; format: cell-based
Text: In these experiments, aorta (3 mm rings) were cleaned of adherent connective tissue and hung on stainless steel hooks attached between a force transducer and stationary mount for the measurement of isometric force generation. Endothelium was removed from some vessels by gentle rubbing of the lumen with a steel wire. Aortic rings were then placed in an isolated chamber, bathed in physiologic salt solution (mmol/L: 130 NaCl, 4.7 KCl, 1.18 KHPO4, 1.17 MgSO4, 1.6 CaCl2-2H2O, 14.9 NaHCO3, 5.5 dextrose, and 0.03 CaNa2EDTA; 37° C.) and gassed with 95% O2/5%CO2 Rings were set at 3 g passive tension and treated with indomethacin (1 μmol/L) to inhibit prostaglandin synthesis. Following a one hour equilibration period, vessels were contracted with phenylephrine (PE) (0.1 μmol/L) and subsequently treated with acetylcholine (1 μmol/L) to test for the presence of endothelium.

corpus cavernosum [5] = assay: Ganglionic (major pelvic ganglion) stimulated increase in CCP/MAP in anesthetized rat; format: in vivo; settings: for effect on baseline CCP or MAP: no stimulation; for CCP/MAP at 5 V (mean ± s.e.m.): n=4
Protocol: as §2
After initial measurements of CCP and MAP during ganglionic stimulation, rats were treated with L-NNA, L-NAME (200 μg/kg body weight), or saline control, and after 5 min ganglionic stimulation and CCP/MAP measurements were repeated. […] After 5 min, a 5-V stimulation was repeated, and CCP and MAP measurements were recorded.
Rho-kinase inhibition can also overcome muscle contraction due to inhibition of cyclic GMP formation. […] After 5 min, a 5-V stimulation was repeated, and CCP and MAP measurements were recorded.

erectile tissue = assay: Erectile response ICP/MAP to NO donor and Rho-kinase inhibitor injected into erectile tissue; format: in vivo; settings: small/low dose injected directly into erectile tissue
cavernous sinuses = assay: Erectile response to 5V ganglionic stimulation after vasoconstrictor injected into cavernous sinuses; format: in vivo; settings: for effect on erectile response to 5V ganglionic stimulation: METHOX 10 μg/kg or ET-1 50 pmol into cavernous sinuses
Protocol: Thus, FIGS. 8 and 9 show results where after an initial (5V) ganglionic stimulation (Cont), either the α-adrenergic agonist, Methoxamine (METHOX) (10 μg/kg) or endothelin-1 (ET-1) (50 pmol) was injected into the cavernous sinuses.

corpus cavernosum [6] = assay: Intracavernosal injection in anesthetized rat, CCP/MAP without ganglionic stimulation; format: in vivo; design: time to plateau of CCP/MAP increase: unit not given here
Protocol: as §2

SHRSP rats = assay: Ganglionic-mediated ICP/MAP in stroke prone spontaneously hypertensive rats (SHRSP); format: in vivo, rat; settings: 50 nmol/kg into left corpus cavernosum, 1-5 V
Text: as §1

corpus cavernosum [7] = assay: Erectile response to electrical stimulation of the autonomic ganglion after phosphatase inhibitor injected into corpus cavernosum; format: in vivo; settings: data not shown
Text: In an embodiment, the target of Rho-kinase is MLC phosphatase (FIG. 2). […] With MLC phosphatase activity inhibited, the resulting high levels of phosphorylated myosin light chain keep the sexual organs in a nonerect state.

[8] = 200 μg/kg into cavernosal sinuses

Q: Which results are given for `CC(N)[C@H]1CC[C@H](C(=O)Nc2ccncc2)CC1` (single isomer, unassigned; (+)) [Y-27632, monohydrate]?
A: erectile response (ICP/MAP) [1]: elevating the erectile response to near normal levels; IC50 ([2]; Rattus norvegicus, read-out: IC50, relaxation of PE-induced tone): 1000 nM; smooth muscle relaxation [3]: cause smooth muscle relaxation; erectile response (castrated rats): restored to levels similar to those in age-matched intact animals; dose at which MAP was significantly decreased [4]: ≥ 400 nmol/kg; smooth muscle relaxation (cultured cells): cause smooth muscle relaxation; vasodilator sensitivity to SNP (rat aorta; 1 μmol/L prior to PE contraction, endothelium-denuded vessels): increased vasodialator sensitivity to SNP; inhibition of force generation to 10 μmol/L PE (rat aorta; 1 μmol/L, endothelium denuded vessels): completely ineffective; inhibition of force generation to 10 μmol/L PE (rat aorta; 1 μmol/L, endothelium intact rings): significant inhibition of force generation; inhibition of contractile response to 10 μmol/L PE (rat aorta; 1 μmol/L, endothelium intact, in presence of L-NNA (100 μmol/L) or ODQ (10 μmol/L)): significantly less effective; inhibition of contractile response to 10 μmol/L PE (rat aorta; 10 μmol/L or 100 μmol/L, endothelium denuded rings): concentration dependent inhibition; effect on attenuation of ganglionic-induced CCP/MAP increase by NOS inhibition (corpus cavernosum [5]; 50 nmol/kg after L-NAME, 5 V): overcome; effect on CCP/MAP response to ganglionic stimulation (corpus cavernosum [5]; 200 nmol/kg into cavernous sinuses, 0-5 V): potentiated the CCP/MAP response to ganglionic stimulation at each voltage; ganglionic-stimulated rise in CCP/MAP at lowest voltages (corpus cavernosum [5]; 200 nmol/kg, lowest stimulation voltages): near maximal levels; increase in ganglionic-stimulated CCP/MAP at 5 V (corpus cavernosum [5]; 2.0-200 nmol/kg, 5 V): 21-38%; erectile response (increase in ICP/MAP) (erectile tissue): cause an erectile response; effect on vasoconstrictor action of ET-1 (cavernous sinuses; 50 nmol before ET-1 50 pmol, 5V): vasoconstrictor effect was prevented; effect on vasoconstrictor action of METHOX (cavernous sinuses; 50 nmol before METHOX 10 μg/kg, 5V): vasoconstrictor effect was prevented; increase in CCP/MAP (corpus cavernosum [6]; 2.0-400 nmol/kg body weight in 2 μl saline into left corpus cavernosum sinuses, no stimulation): significant dose-dependent increase; time to plateau of CCP/MAP increase (corpus cavernosum [6]; 2.0-400 nmol/kg intracavernosal): about four; maximum increase in CCP/MAP over control (corpus cavernosum [6]; range of 2.0-200 nmol/kg, independent of significant changes in MAP): 74%; erectile response (ICP/MAP) (SHRSP rats): significantly increasing the erectile response

Q: What does the source list for `COC(=O)[C@@H](N)CCCNC(=N)N[N+](=O)[O-]` [L-NAME, N^ω-nitro-L-arginine methyl ester]?
A: effect on relaxation response of cavernosal strips to 1 μM Y-27632 [2]: did not significantly alter; effect on PE-induced contraction ([2]; 10 μM, 15 min): no effect; effect on increase in CCP/MAP induced by 5 V stimulation (corpus cavernosum [5]; 200 μg/kg into cavernosal sinuses, 5 V): significantly attenuated; effect on baseline CCP or MAP (corpus cavernosum [5]; [8]): did not alter CCP or MAP from baseline

Q: Which “effect on baseline CCP or MAP” value (corpus cavernosum [5]; [8]) does the source give for `N=C(NCCC[C@H](N)C(=O)O)N[N+](=O)[O-]` [L-NNA, N^ω-nitro-L-arginine] here?
A: Its value is “did not alter CCP or MAP from baseline”.

Q: With `CN(C)c1ccc2nc3ccc(=[N+](C)C)cc-3sc2c1` [MB, methylene blue] as the compound, how does the “effect on relaxation response of cavernosal strips to 1 μM Y-27632” value [2] read?
A: The value was “did not significantly alter”.

Q: What about the “CCP/MAP at 5 V (mean ± s.e.m.)” value (corpus cavernosum [5]; MB 300-500 μg/kg intracavernosal, Y-27632 50-200 nmol/kg in continued presence of MB) of the same compound?
A: Its value is 0.49±0.04.

Q: With `COc1ccc(OC)c(C(O)C(C)N)c1` (centres unmarked) [METHOX, Methoxamine] as the compound, how does the “effect on erectile response to 5V ganglionic stimulation” value (cavernous sinuses) read?
A: The value was “lowered the erectile response”.

Q: For `O=c1onc2cnc3ccccc3n12` [ODQ, 1H-[1,2,4]oxadiozolo-[4,3-a]quinoxalin-1], which “CCP/MAP at 5 V (mean ± s.e.m.)” value (corpus cavernosum [5]; ODQ 300-500 μg/kg intracavernosal, Y-27632 50-200 nmol/kg in continued presence of ODQ) is on record?
A: Its value is 0.50±0.07.

Q: For `[Na+].[Na+].[Na+].[O]=[V]([O-])([O-])[O-]` [SOV, sodium orthovanadate], which “inhibition of erectile response” value (corpus cavernosum [7]; 0.1 and 1 μmol/L SOV) is on record?
A: The value was “significant inhibition”.

Q: And the “effect on erectile response” value (corpus cavernosum [7]; injected into corpus cavernosum immediately before stimulation)?
A: Its value is “inhibits the erectile response in a dose dependent manner”.

Q: Which “erectile response (increase in ICP/MAP)” value (erectile tissue) does the source give for “(+/−)-(E)-methyl-2-((E)-hydroxyimino)-5-nitro-6-methoxy-3-hexenamide [NOR-1]” here?
A: Its value is “intermediate erectile response”.

Q: Which “effect on erectile response to 5V ganglionic stimulation” value (cavernous sinuses) does the source give for “endothelin-1 (CSCSSLMDKECVYFCHLDIIW; Endothelin-1; UniProt P05305 53-73, looked up) [ET-1, vasoconstrictor]” here?
A: Its value is “lowered the erectile response”.

Source: patent publication US20020132832A1, “Treatment of erectile dysfunction” (priority 2001, published 2002)
